Assay results taken from the supplement of paper PMC10307832.

Tests used:
Assay in all cases: relative viability (nuclei count vs DMSO), 5 days (fraction); higher = more cells survive
[1] = compound: C1=CC2=C(C=CC(=C2)C=C3C(=O)NC(=NCC4=CC=CS4)S3)N=C1 [RO-3306] + CC1(C)CCC(c2ccc(Cl)cc2)=C(CN2CCN(c3ccc(C(=O)NS(=O)(=O)c4ccc(N[C@H](CCN5CCOCC5)CSc5ccccc5)c(S(=O)(=O)C(F)(F)F)c4)cc3)CC2)C1 [Navitoclax] (partner 0.5 µM)
Summary of the method: (§1)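 Lung cancer cell lines, seeded in 1536-well plates, were treated the following day by pin tool with a single drug or with five library-drug doses (not always all listed) in √10 steps on top of a fixed anchor-drug dose. Cells were fixed and nuclei stained in one step after 5 days, and nuclei were counted. Relative viability is the nuclei count for treated wells divided by that for vehicle wells, reported as medians of duplicate plates.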

[2] = compound: C1=CC2=C(C=CC(=C2)C=C3C(=O)NC(=NCC4=CC=CS4)S3)N=C1 [RO-3306] + Nc1nc2[nH]cc(CCc3ccc(C(=O)N[C@@H](CCC(=O)O)C(=O)O)cc3)c2c(=O)[nH]1 [Pemetrexed] (partner 0.2 µM)
Summary of the method: as §1

[3] = compound: C1=CC2=C(C=CC(=C2)C=C3C(=O)NC(=NCC4=CC=CS4)S3)N=C1 [RO-3306] + O=C(CCCCCCC(=O)Nc1ccccc1)NO [Vorinostat] (partner 1 µM)
Summary of the method: as §1

[4] = compound: O=S(=O)(c1ccccc1)N(CC(F)(F)F)c1ccc(C(O)(C(F)(F)F)C(F)(F)F)cc1 + Cc1nc(Nc2ncc(C(=O)Nc3c(C)cccc3Cl)s2)cc(N2CCN(CCO)CC2)n1 [Dasatinib] (partner 0.075 µM)
Summary of the method: as §1

| Cell Line | relative viability ([1]; first compound 0.01 µM) | relative viability ([1]; first compound 0.03162 µM) | relative viability ([1]; first compound 0.1 µM) | relative viability ([1]; first compound 0.3162 µM) | relative viability ([1]; first compound 1 µM) | relative viability ([2]; first compound 0.01 µM) | relative viability ([2]; first compound 0.03162 µM) | relative viability ([2]; first compound 0.1 µM) | relative viability ([2]; first compound 0.3162 µM) | relative viability ([2]; first compound 1 µM) | relative viability ([3]; first compound 0.01 µM) | relative viability ([3]; first compound 0.03162 µM) | relative viability ([3]; first compound 0.1 µM) | relative viability ([3]; first compound 0.3162 µM) | relative viability ([3]; first compound 1 µM) | relative viability ([4]; first compound 0.8 µM) | relative viability ([4]; first compound 2.53 µM) | relative viability ([4]; first compound 8 µM) |
| --- | --- | --- | --- | --- | --- | --- | --- | --- | --- | --- | --- | --- | --- | --- | --- | --- | --- | --- |
| NCI-H2087 | 0.999 | 1.15 | 0.995 | 1.08 | 0.937 | 0.678 | 0.677 | 0.636 | 0.652 | 0.648 | 0.775 | 0.805 | 0.756 | 0.864 | 0.86 | 0.72 | 0.713 | 0.74 |
| NCI-H460 | 1.26 |  | 1.26 | 1.35 | 1.22 | 0.0602 | 0.0669 | 0.0671 | 0.0618 | 0.0563 | 1.19 | 0.517 | 0.677 | 0.976 | 0.448 | 0.654 | 0.459 | 0.574 |
| NCI-H1793 | 0.432 | 0.391 | 0.46 | 0.46 | 0.358 | 0.971 |  | 0.771 | 0.901 | 0.667 | 0.985 |  | 0.58 | 0.701 | 0.721 | 0.375 | 0.335 | 0.347 |
| A-427 | 1.05 | 0.978 | 0.959 | 0.936 | 0.993 | 0.942 | 0.902 | 0.966 | 0.937 | 0.607 | 0.843 | 0.818 | 0.898 | 0.911 | 0.865 | 0.737 | 0.653 | 0.846 |
